The source of these data is patent publication US20030181426A1, “Compositions and methods for treating pain using cyclooxygenase-1 inhibitors” (priority 2002, published 2003).

One data set concerns COX-1 and COX-2. Conditions: as known in the art / Warner, 1999; cited from earlier work.
In data set [1] the test system is acetic acid-induced writhing response. Conditions: mice; COX-1 sensitive pain models; Ochi et al. 2000; cited from earlier work.
The test system of another data set is inflammation. The note with it: rat animal model; compared to indomethancin; Mansferrer et al. 1994; cited from earlier work.
Data set [2] concerns tactile allodynia. Briefly: Partial sciatic nerve ligation (PSNL) tactile allodynia, i.t. COX inhibitors. Format: in vivo, Sprague-Dawley rats. An excerpt: A Sprague-Dawley rats (Harlan Industries, Indianapolis, Ind., USA), weighing 200-250 g, were used in this study. All animal surgical procedures were in conformity with the Wake Forest University guidelines on the ethical use of animals and studies were approved by the Animal Care and Use Committee. Animals were implanted with intrathecal catheters according to the method described previously. (Yaksh TL, 1976). Briefly, under halothane anesthesia (2-4% in oxygen/air), animals were placed prone in a stereotaxic frame and a small incision was made at the back of the neck. A small puncture was made in the atlanto-occipital membrane of the cistema magna and a polyethylene catheter (PE-10, 7.5 cm) was inserted so that the caudal tip reached the lumbar enlargement of the spinal cord. The rostral end of the catheter was exteriorized at the top of the head and the wound was closed with sutures. Animals were allowed 4-5 days to recover from the surgery and those displaying signs of motor dysfunction (fore limb or hind limb paralysis) were excluded from the study. Rats were anesthetized with 2-4% halothane in oxygen-air. For partial […] nerve ligation (PSNL), the left sciatic nerve was exposed at the high thigh level and one-third to one-half of the nerve was ligated with silk suture (size 6) as previously described (Shir et al., 1991). Animals were maintained after surgery with ad libitum food and water on a 12-h light/dark cycle. All rats were allowed to recover for 4 weeks after PSNL. By then, tactile allodynia was well established in the ipsilateral hindpaw.

In a further data set the test system is noxious heat. Briefly: Latency to paw withdrawal from noxious heat. Conditions: drug alone; rats with intrathecal catheter. The data set is classed as in vivo, male Sprague-Dawley rats. Here is the method:
After Animal Care and Use Committee approval, adult male Sprague-Dawley rats (240-330 g; Harlan, Indianapolis, Ind.) were anesthetized with halothane. A catheter was inserted, as previously described, through a small nick in the cisterna magnum membrane into the intrathecal space and advanced 7.5 cm such that its tip lay in the lumbar intrathecal space. […] After catheter implantation, rats were housed individually with a 12 h/12 h light/dark cycle and an unlimited supply of water and food. Experiments occurred at least 6 days after surgery.

For data set [3] the following is noted: rat, in vivo, ip.
A short description of data set [4]: Hind limb weakness or paralysis after lidocaine injection.
The test system of data set [5] is tactile allodynia. Briefly: L5 and L6 spinal nerve ligation (SNL) tactile allodynia, lidocaine and ketorolac. The data set is classed as in vivo, male Sprague-Dawley rats.
In data set [6] the test system is tactile allodynia. Briefly: PSNL tactile allodynia, lidocaine. Format: in vivo, male Sprague-Dawley rats.
For data set [7], the system named is locomotor activity after laparotomy. Briefly: Post-laparotomy locomotor activity model. The data set is classed as in vivo, rats.
The subject of data set [8] is nociceptive responses. The note with it: mice with paw inflammation; Mazario et al. 2001; cited from earlier work.
The test system of data set [9] is nociceptive responses. Conditions: normal and monoarthritic rats; Mazario et al. 2001; cited from earlier work.
Setting [10] is: 300 μg intrathecal, 3 days after injection.
Setting [11] is: IV 3 mg/kg, 24 hr after laparotomy, 3 mg/kg.

Structures are written as SMILES. “Also recorded” adds a separate entry of the source. Where two headings read alike, the source gives them in different places.

For the compound `COc1ccc2cc(CC(=O)O)ccc2c1` [6-methoxy-2-napthyl acetic acid], the “preference in inhibition of COX-1 and COX-2” value (shortened to “preference in inhibition”) with COX-1 and COX-2 is listed as “preferentially inhibit COX-2”.

In the case of `COc1ccc(-c2nc(C(=O)N3CCN(C)CC3)sc2-c2ccc(OC)cc2)cc1` [FR122047], in data set [1], the “analgesic effect against acetic acid-induced writhing response” value is given as “dose-dependent analgesic effect”.

Consider `CS(=O)(=O)Nc1ccc([N+](=O)[O-])cc1OC1CCCCC1` [NS-398], for which the “anti-inflammatory and ulcerogenic effect” value in the data set on inflammation is given as “anti-inflammatory but not ulcerogenic”. Moreover, the “withdrawal threshold, ipsilateral hindpaw” value in the data set with tactile allodynia [2] (2 and 4 h after injection) was “reversed to pre-lesion baseline level”; with tactile allodynia [2] (48 h post-injection), “returned to pre-injection level”. Moreover, in the data set on tactile allodynia [2] (4 weeks after PSNL), the “duration of reversal of withdrawal threshold” value amounted to 24 h. The “analgesic effect against acetic acid-induced writhing response” value in [1] is on record as “had no effect”.

On to `Clc1cccc(Cl)c1N=C1NCCN1` [clonidine], for which the “antinociception (latency to paw withdrawal from noxious heat)” value in the data set on noxious heat is recorded as “produced antinociception”.

Turning to `CC(C(=O)O)c1ccc(-c2ccccc2)c(F)c1` (stereo not shown) [flubiprofen], in the data set on COX-1 and COX-2, the “preference in inhibition” value is listed as “preferentially inhibit COX-1”.

As to `CC(C)Cc1ccc(C(C)C(=O)O)cc1` (stereo not shown) [ibuprofen], the “preference in inhibition” value in the data set on COX-1 and COX-2 is “no or small preferences in inhibition of COX-1 and COX-2”.

For `COc1ccc2c(c1)c(CC(=O)O)c(C)n2C(=O)c1ccc(Cl)cc1` [indomethancin], the “preference in inhibition” value in the data set on COX-1 and COX-2 is on record as “preferentially inhibit COX-1”.

For the compound `CCN(CC)CC(=O)Nc1c(C)cccc1C` [lidocaine], the behavior entry in data set [3] was “no abnormal behavior”. Besides, the “transient weakness or paralysis of both hind limbs, incidence” value in data set [4] (100 μg intrathecal) is “completely absent”; in data set [4] (200 μg intrathecal), “one third of rats”; in data set [4] (300 μg intrathecal) it was “almost all rats”. The “duration of transient weakness or paralysis” value in data set [4] (intrathecal lidocaine) was in the range of 10 to 20 min. In addition, the “tactile allodynia, ipsilateral hind paw” value is listed as “markedly reversed to the prelesion level” in the data set on tactile allodynia [5] (100 μg intrathecal, four weeks following SNL, two hours and 2 days following injection); “markedly reversed to the prelesion level” in the data set on tactile allodynia [5] (200 μg intrathecal, four weeks following SNL, two hours and 2 days following injection); “reappeared” with tactile allodynia [5] (200 μg intrathecal, three days after injection); “markedly reversed to the prelesion level” in the data set on tactile allodynia [5] (300 μg intrathecal, four weeks following SNL, two hours and 2 days following injection); “reappeared” in the data set with tactile allodynia [5] (300 μg intrathecal, three days after injection). The “withdrawal threshold in the hind paw” value with tactile allodynia [5] (100 μg intrathecal, three days after injection) was “not significantly lower than the prelesion baseline value”. In addition, in the data set with tactile allodynia [6] (300 μg intraperitoneal, four PSNL rats), the tactile allodynia result is given as “no attenuation or reversal of tactile allodynia was observed”. In addition, in the data set on tactile allodynia [6] (300 μg intrathecal, 1 week after injection), the antiallodynic effect result is “disappeared”. For the same compound, the “effect on the ipsilateral hind paw” value in the data set with tactile allodynia [6] (setting [10]) is listed as “antinociceptive effect”. The “reversal of tactile allodynia” value in the data set with tactile allodynia [6] (setting [10]) was “also observed”. Moreover, in the data set with tactile allodynia [6] (300 μg intrathecal, two weeks after PSNL, two hours following injection), the “tactile allodynia in both hind paws” value is given as “significantly reversed”.

As to `CN1CC[C@]23c4c5ccc(O)c4O[C@H]2[C@@H](O)C=C[C@H]3[C@H]1C5` [morphine], in [7] (1 mg/kg), the “ambulatory activity in sham animals” value is on record as “stimulates ambulatory activity”. Further, in data set [7] (setting [11]), the “effect of laparotomy on ambulatory activity” value is given as “blocked; also recorded: reversed” and the “effect of laparotomy on vertical activity” value is recorded as “not vertical counts; also recorded: not vertical activity”.

Consider `CS(=O)(=O)Nc1ccc([N+](=O)[O-])cc1Oc1ccccc1` [nimesulide], for which the “preference in inhibition” value in the data set on COX-1 and COX-2 is “preferentially inhibit COX-2”.

As to `CN1C(C(=O)Nc2ccccn2)=C(O)c2ccccc2S1(=O)=O` [piroxicam], in the data set on tactile allodynia [2] (4 weeks after PSNL), the “well established tactile allodynia in either hindpaw” value is “failed to attenuate”.

On to `CS(=O)(=O)c1ccc(C2=C(c3ccccc3)C(=O)OC2)cc1` [rofecoxib], for which the “reduction of nociceptive responses” value in the data set on nociceptive responses [8] and with nociceptive responses [9] was “no effect” in each case.
